Assay results taken from the CheMixHub ionic liquid set.
± gives the uncertainty stated by the source.

Test: xn = mol fraction of the nth substance listed
Details: 100 kPa

## CCCCCCCC[n+]1ccccc1.[Br-] + C[C@H](N)C(=O)O + O
288.15 K, x2 = 0.0008949, x1 = 0.005855
  electrical conductivity: 1.24 ± 0.074 S/m
288.15 K, x2 = 0.000895, x1 = 0.005791
  electrical conductivity: 1.23 ± 0.074 S/m
288.15 K, x2 = 0.0008952, x1 = 0.005507
  electrical conductivity: 1.2 ± 0.072 S/m
288.15 K, x2 = 0.0008955, x1 = 0.005201
  electrical conductivity: 1.17 ± 0.07 S/m
288.15 K, x2 = 0.0008958, x1 = 0.004877
  electrical conductivity: 1.14 ± 0.068 S/m
288.15 K, x2 = 0.0008961, x1 = 0.004522
  electrical conductivity: 1.1 ± 0.066 S/m
288.15 K, x2 = 0.0008965, x1 = 0.004131
  electrical conductivity: 1.04 ± 0.063 S/m
288.15 K, x2 = 0.0008969, x1 = 0.003704
  electrical conductivity: 0.975 ± 0.059 S/m
288.15 K, x2 = 0.0008973, x1 = 0.003232
  electrical conductivity: 0.884 ± 0.053 S/m
288.15 K, x2 = 0.0008977, x1 = 0.002757
  electrical conductivity: 0.789 ± 0.047 S/m
288.15 K, x2 = 0.0008982, x1 = 0.002255
  electrical conductivity: 0.678 ± 0.041 S/m
288.15 K, x2 = 0.0008984, x1 = 0.001938
  electrical conductivity: 0.603 ± 0.036 S/m
288.15 K, x2 = 0.0008988, x1 = 0.001556
  electrical conductivity: 0.507 ± 0.03 S/m
288.15 K, x2 = 0.0008991, x1 = 0.001181
  electrical conductivity: 0.405 ± 0.024 S/m
288.15 K, x2 = 0.0008995, x1 = 0.0007571
  electrical conductivity: 0.288 ± 0.017 S/m
288.15 K, x2 = 0.001794, x1 = 0.002782
  electrical conductivity: 0.753 ± 0.045 S/m
288.15 K, x2 = 0.001795, x1 = 0.002177
  electrical conductivity: 0.623 ± 0.037 S/m
288.15 K, x2 = 0.001796, x1 = 0.001292
  electrical conductivity: 0.412 ± 0.025 S/m
288.15 K, x2 = 0.001796, x1 = 0.001777
  electrical conductivity: 0.532 ± 0.032 S/m
288.15 K, x2 = 0.001797, x1 = 0.0008214
  electrical conductivity: 0.291 ± 0.018 S/m
293.15 K, x2 = 0.0008949, x1 = 0.005848
  electrical conductivity: 1.41 ± 0.085 S/m
293.15 K, x2 = 0.000895, x1 = 0.005786
  electrical conductivity: 1.4 ± 0.084 S/m
293.15 K, x2 = 0.0008952, x1 = 0.005501
  electrical conductivity: 1.37 ± 0.082 S/m
293.15 K, x2 = 0.0008955, x1 = 0.005196
  electrical conductivity: 1.33 ± 0.08 S/m
293.15 K, x2 = 0.0008958, x1 = 0.004871
  electrical conductivity: 1.29 ± 0.077 S/m
293.15 K, x2 = 0.0008961, x1 = 0.004517
  electrical conductivity: 1.25 ± 0.075 S/m
293.15 K, x2 = 0.0008965, x1 = 0.004128
  electrical conductivity: 1.18 ± 0.071 S/m
293.15 K, x2 = 0.0008969, x1 = 0.003703
  electrical conductivity: 1.1 ± 0.066 S/m
293.15 K, x2 = 0.0008973, x1 = 0.003228
  electrical conductivity: 1 ± 0.06 S/m
293.15 K, x2 = 0.0008977, x1 = 0.002756
  electrical conductivity: 0.894 ± 0.054 S/m
293.15 K, x2 = 0.0008982, x1 = 0.002254
  electrical conductivity: 0.766 ± 0.046 S/m
293.15 K, x2 = 0.0008984, x1 = 0.001937
  electrical conductivity: 0.68 ± 0.041 S/m
293.15 K, x2 = 0.0008988, x1 = 0.001555
  electrical conductivity: 0.568 ± 0.034 S/m
293.15 K, x2 = 0.0008991, x1 = 0.001179
  electrical conductivity: 0.455 ± 0.027 S/m
293.15 K, x2 = 0.0008995, x1 = 0.0007571
  electrical conductivity: 0.334 ± 0.02 S/m
293.15 K, x2 = 0.001794, x1 = 0.00278
  electrical conductivity: 0.851 ± 0.051 S/m
293.15 K, x2 = 0.001795, x1 = 0.002175
  electrical conductivity: 0.705 ± 0.042 S/m
293.15 K, x2 = 0.001796, x1 = 0.001292
  electrical conductivity: 0.464 ± 0.028 S/m
293.15 K, x2 = 0.001796, x1 = 0.001777
  electrical conductivity: 0.602 ± 0.036 S/m
293.15 K, x2 = 0.001797, x1 = 0.0008196
  electrical conductivity: 0.325 ± 0.02 S/m
298.15 K, x2 = 0.0008949, x1 = 0.005843
  electrical conductivity: 1.59 ± 0.095 S/m
298.15 K, x2 = 0.000895, x1 = 0.005779
  electrical conductivity: 1.58 ± 0.095 S/m
298.15 K, x2 = 0.0008952, x1 = 0.005494
  electrical conductivity: 1.54 ± 0.093 S/m
298.15 K, x2 = 0.0008955, x1 = 0.005188
  electrical conductivity: 1.5 ± 0.09 S/m
298.15 K, x2 = 0.0008958, x1 = 0.004866
  electrical conductivity: 1.45 ± 0.087 S/m
298.15 K, x2 = 0.0008961, x1 = 0.004511
  electrical conductivity: 1.4 ± 0.084 S/m
298.15 K, x2 = 0.0008965, x1 = 0.004122
  electrical conductivity: 1.32 ± 0.08 S/m
298.15 K, x2 = 0.0008969, x1 = 0.003697
  electrical conductivity: 1.24 ± 0.074 S/m
298.15 K, x2 = 0.0008973, x1 = 0.003225
  electrical conductivity: 1.12 ± 0.067 S/m
298.15 K, x2 = 0.0008977, x1 = 0.002752
  electrical conductivity: 1 ± 0.06 S/m
298.15 K, x2 = 0.0008982, x1 = 0.002252
  electrical conductivity: 0.857 ± 0.051 S/m
298.15 K, x2 = 0.0008984, x1 = 0.001935
  electrical conductivity: 0.762 ± 0.046 S/m
298.15 K, x2 = 0.0008988, x1 = 0.001553
  electrical conductivity: 0.633 ± 0.038 S/m
298.15 K, x2 = 0.0008991, x1 = 0.001178
  electrical conductivity: 0.509 ± 0.031 S/m
298.15 K, x2 = 0.0008995, x1 = 0.0007571
  electrical conductivity: 0.36 ± 0.022 S/m
298.15 K, x2 = 0.001794, x1 = 0.002776
  electrical conductivity: 0.953 ± 0.057 S/m
298.15 K, x2 = 0.001795, x1 = 0.002171
  electrical conductivity: 0.788 ± 0.047 S/m
298.15 K, x2 = 0.001796, x1 = 0.00129
  electrical conductivity: 0.518 ± 0.031 S/m
298.15 K, x2 = 0.001796, x1 = 0.001774
  electrical conductivity: 0.671 ± 0.04 S/m
298.15 K, x2 = 0.001797, x1 = 0.0008196
  electrical conductivity: 0.36 ± 0.022 S/m
303.15 K, x2 = 0.0008949, x1 = 0.005838
  electrical conductivity: 1.78 ± 0.11 S/m
303.15 K, x2 = 0.000895, x1 = 0.005773
  electrical conductivity: 1.77 ± 0.11 S/m
303.15 K, x2 = 0.0008952, x1 = 0.005489
  electrical conductivity: 1.73 ± 0.1 S/m
303.15 K, x2 = 0.0008955, x1 = 0.005185
  electrical conductivity: 1.68 ± 0.1 S/m
303.15 K, x2 = 0.0008958, x1 = 0.004861
  electrical conductivity: 1.62 ± 0.097 S/m
303.15 K, x2 = 0.0008961, x1 = 0.004508
  electrical conductivity: 1.56 ± 0.094 S/m
303.15 K, x2 = 0.0008965, x1 = 0.004119
  electrical conductivity: 1.48 ± 0.089 S/m
303.15 K, x2 = 0.0008969, x1 = 0.003694
  electrical conductivity: 1.38 ± 0.083 S/m
303.15 K, x2 = 0.0008973, x1 = 0.003221
  electrical conductivity: 1.25 ± 0.075 S/m
303.15 K, x2 = 0.0008977, x1 = 0.002748
  electrical conductivity: 1.11 ± 0.067 S/m
303.15 K, x2 = 0.0008982, x1 = 0.002248
  electrical conductivity: 0.952 ± 0.057 S/m
303.15 K, x2 = 0.0008984, x1 = 0.001933
  electrical conductivity: 0.834 ± 0.05 S/m
303.15 K, x2 = 0.0008988, x1 = 0.001553
  electrical conductivity: 0.687 ± 0.041 S/m
303.15 K, x2 = 0.0008991, x1 = 0.001178
  electrical conductivity: 0.563 ± 0.034 S/m
303.15 K, x2 = 0.0008995, x1 = 0.0007553
  electrical conductivity: 0.418 ± 0.025 S/m
303.15 K, x2 = 0.001794, x1 = 0.002774
  electrical conductivity: 1.06 ± 0.064 S/m
303.15 K, x2 = 0.001795, x1 = 0.002169
  electrical conductivity: 0.875 ± 0.052 S/m
303.15 K, x2 = 0.001796, x1 = 0.001289
  electrical conductivity: 0.574 ± 0.035 S/m
303.15 K, x2 = 0.001796, x1 = 0.001774
  electrical conductivity: 0.741 ± 0.044 S/m
303.15 K, x2 = 0.001797, x1 = 0.0008196
  electrical conductivity: 0.4 ± 0.024 S/m
308.15 K, x2 = 0.000895, x1 = 0.005759
  electrical conductivity: 2.02 ± 0.12 S/m
308.15 K, x2 = 0.000895, x1 = 0.005823
  electrical conductivity: 2.04 ± 0.12 S/m
308.15 K, x2 = 0.0008953, x1 = 0.005478
  electrical conductivity: 1.95 ± 0.12 S/m
308.15 K, x2 = 0.0008955, x1 = 0.005172
  electrical conductivity: 1.88 ± 0.11 S/m
308.15 K, x2 = 0.0008958, x1 = 0.00485
  electrical conductivity: 1.8 ± 0.11 S/m
308.15 K, x2 = 0.0008961, x1 = 0.004497
  electrical conductivity: 1.72 ± 0.1 S/m
308.15 K, x2 = 0.0008965, x1 = 0.00411
  electrical conductivity: 1.63 ± 0.098 S/m
308.15 K, x2 = 0.0008969, x1 = 0.003686
  electrical conductivity: 1.51 ± 0.091 S/m
308.15 K, x2 = 0.0008973, x1 = 0.003214
  electrical conductivity: 1.36 ± 0.082 S/m
308.15 K, x2 = 0.0008977, x1 = 0.002743
  electrical conductivity: 1.2 ± 0.072 S/m
308.15 K, x2 = 0.0008982, x1 = 0.002245
  electrical conductivity: 1.02 ± 0.061 S/m
308.15 K, x2 = 0.0008984, x1 = 0.001928
  electrical conductivity: 0.908 ± 0.054 S/m
308.15 K, x2 = 0.0008988, x1 = 0.001549
  electrical conductivity: 0.78 ± 0.047 S/m
308.15 K, x2 = 0.0008991, x1 = 0.001174
  electrical conductivity: 0.643 ± 0.039 S/m
308.15 K, x2 = 0.0008995, x1 = 0.0007535
  electrical conductivity: 0.488 ± 0.029 S/m
308.15 K, x2 = 0.001794, x1 = 0.002767
  electrical conductivity: 1.15 ± 0.069 S/m
308.15 K, x2 = 0.001795, x1 = 0.002166
  electrical conductivity: 0.937 ± 0.056 S/m
308.15 K, x2 = 0.001796, x1 = 0.001287
  electrical conductivity: 0.631 ± 0.038 S/m
308.15 K, x2 = 0.001796, x1 = 0.001768
  electrical conductivity: 0.805 ± 0.048 S/m
308.15 K, x2 = 0.001797, x1 = 0.0008178
  electrical conductivity: 0.46 ± 0.028 S/m
